Columns and labels:
Type in all cases: cell-based
OCT2 [1] = molecular target: T1, OCT2 (Homo sapiens, UniProt O15244); experiment: […]TEA uptake in OCT2-transfected HEK293 cells
T1 sequence (O15244 1-555): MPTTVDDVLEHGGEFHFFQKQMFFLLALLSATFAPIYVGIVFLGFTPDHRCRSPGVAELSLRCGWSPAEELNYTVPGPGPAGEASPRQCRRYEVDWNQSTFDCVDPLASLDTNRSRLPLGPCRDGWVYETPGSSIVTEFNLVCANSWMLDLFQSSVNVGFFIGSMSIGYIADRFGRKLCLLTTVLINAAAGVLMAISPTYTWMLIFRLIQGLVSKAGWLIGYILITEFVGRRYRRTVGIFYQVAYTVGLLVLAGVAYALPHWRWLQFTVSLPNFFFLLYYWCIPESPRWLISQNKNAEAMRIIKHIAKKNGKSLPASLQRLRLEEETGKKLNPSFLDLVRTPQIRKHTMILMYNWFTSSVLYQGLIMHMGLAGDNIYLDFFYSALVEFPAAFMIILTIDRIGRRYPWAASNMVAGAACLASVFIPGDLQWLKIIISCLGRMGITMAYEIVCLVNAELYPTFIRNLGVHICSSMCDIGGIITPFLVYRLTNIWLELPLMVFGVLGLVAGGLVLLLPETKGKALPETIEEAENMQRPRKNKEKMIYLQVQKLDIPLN

mouse Oct1 = molecular target: T2, mouse Oct1 (Mus musculus, UniProt O08966); experiment: TEA and ASP+ uptake inhibition in mOct1-transfected HEK293 cells
T2 sequence (O08966 1-556): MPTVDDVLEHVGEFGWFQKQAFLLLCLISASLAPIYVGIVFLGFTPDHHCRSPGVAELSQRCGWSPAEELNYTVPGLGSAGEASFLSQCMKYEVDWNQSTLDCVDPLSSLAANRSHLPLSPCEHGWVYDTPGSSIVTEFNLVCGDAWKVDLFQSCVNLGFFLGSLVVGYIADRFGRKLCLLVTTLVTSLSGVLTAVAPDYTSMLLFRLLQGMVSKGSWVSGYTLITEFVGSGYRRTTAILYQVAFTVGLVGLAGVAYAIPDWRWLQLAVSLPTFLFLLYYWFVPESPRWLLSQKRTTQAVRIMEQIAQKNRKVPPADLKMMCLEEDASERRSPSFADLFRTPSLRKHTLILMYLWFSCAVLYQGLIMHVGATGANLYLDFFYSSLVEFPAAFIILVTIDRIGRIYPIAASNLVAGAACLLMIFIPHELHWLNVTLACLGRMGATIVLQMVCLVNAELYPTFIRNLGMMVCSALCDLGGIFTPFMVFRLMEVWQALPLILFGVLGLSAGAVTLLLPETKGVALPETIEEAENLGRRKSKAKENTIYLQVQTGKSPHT

OCT2 [2] = molecular target: T1, OCT2; experiment: […]TEA uptake inhibition in OCT2-transfected HEK293 cells, Dixon plot
mouse Oct2 = molecular target: T3, mouse Oct2 (Mus musculus, UniProt O70577); experiment: TEA and ASP+ uptake inhibition in mOct2-transfected HEK293 cells
T3 sequence (O70577 1-553): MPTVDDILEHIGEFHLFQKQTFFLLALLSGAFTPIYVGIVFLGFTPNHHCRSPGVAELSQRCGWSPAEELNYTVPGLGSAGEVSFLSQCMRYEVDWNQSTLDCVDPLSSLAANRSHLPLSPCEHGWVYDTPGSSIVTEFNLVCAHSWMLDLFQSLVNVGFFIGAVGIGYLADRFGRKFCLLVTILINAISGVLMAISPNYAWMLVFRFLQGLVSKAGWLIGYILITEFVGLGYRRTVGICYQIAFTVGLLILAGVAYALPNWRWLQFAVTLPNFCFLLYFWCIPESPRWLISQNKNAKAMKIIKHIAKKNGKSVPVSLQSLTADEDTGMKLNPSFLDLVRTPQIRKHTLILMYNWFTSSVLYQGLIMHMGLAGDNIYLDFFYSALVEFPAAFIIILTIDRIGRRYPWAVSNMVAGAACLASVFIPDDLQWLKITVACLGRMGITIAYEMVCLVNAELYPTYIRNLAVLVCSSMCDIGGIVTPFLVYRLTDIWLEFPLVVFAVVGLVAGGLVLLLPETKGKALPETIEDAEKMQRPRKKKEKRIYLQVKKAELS

Ki (OCT2 [2])	Compound	[14C]TEA uptake in OCT2-transfected HEK293 cells (OCT2 [1])	TEA and ASP+ uptake inhibition in mOct1-transfected HEK293 cells (mouse Oct1)	TEA and ASP+ uptake inhibition in mOct2-transfected HEK293 cells (mouse Oct2)
	CC[N+](CC)(CC)CC [tetraethylammonium]	kinetic analyses were performed with and without pifithrin-α using varying concentrations of TEA as the OCT2 substrate		
3.04 µM	Cc1ccc(C(=O)Cn2c3c(sc2=N)CCCC3)cc1 [pifithrin-α]		pifithrin-α reduced uptake of TEA in Oct1 and Oct2 overexpressing HEK293 cells (Fig. 5A)	pifithrin-α reduced uptake of TEA in Oct1 and Oct2 overexpressing HEK293 cells (Fig. 5A)

Reference: paper PMC4119572 (Clinical cancer research : an official journal of the …, 2014)
